Results: ChEMBL document CHEMBL5696443 (Clin Cancer Res, 2016)
Calls of active or inactive are those of the source. No cut-off for these calls is given here.

Experiments:
[1] = Average plasma concentration in CB-17/SCID mouse at 50 mg/kg administered once a day for 4 days by LC-MS/MS analysis; assay type: ADME, organism-based; settings: in vivo, 96 h, time 4 day
[2] = molecular target: Serine/threonine-protein kinase PAK 5 (Homo sapiens) (UniProt Q9P286); test: Inhibition of human PAK5 at 1 uM using RRRLSFAEPG as substrate in presence of [gamma33P]-ATP by HotSpot assay relative to control
Sequence of Serine/threonine-protein kinase PAK 5 (Homo sapiens) (Q9P286 whole entry, looked up): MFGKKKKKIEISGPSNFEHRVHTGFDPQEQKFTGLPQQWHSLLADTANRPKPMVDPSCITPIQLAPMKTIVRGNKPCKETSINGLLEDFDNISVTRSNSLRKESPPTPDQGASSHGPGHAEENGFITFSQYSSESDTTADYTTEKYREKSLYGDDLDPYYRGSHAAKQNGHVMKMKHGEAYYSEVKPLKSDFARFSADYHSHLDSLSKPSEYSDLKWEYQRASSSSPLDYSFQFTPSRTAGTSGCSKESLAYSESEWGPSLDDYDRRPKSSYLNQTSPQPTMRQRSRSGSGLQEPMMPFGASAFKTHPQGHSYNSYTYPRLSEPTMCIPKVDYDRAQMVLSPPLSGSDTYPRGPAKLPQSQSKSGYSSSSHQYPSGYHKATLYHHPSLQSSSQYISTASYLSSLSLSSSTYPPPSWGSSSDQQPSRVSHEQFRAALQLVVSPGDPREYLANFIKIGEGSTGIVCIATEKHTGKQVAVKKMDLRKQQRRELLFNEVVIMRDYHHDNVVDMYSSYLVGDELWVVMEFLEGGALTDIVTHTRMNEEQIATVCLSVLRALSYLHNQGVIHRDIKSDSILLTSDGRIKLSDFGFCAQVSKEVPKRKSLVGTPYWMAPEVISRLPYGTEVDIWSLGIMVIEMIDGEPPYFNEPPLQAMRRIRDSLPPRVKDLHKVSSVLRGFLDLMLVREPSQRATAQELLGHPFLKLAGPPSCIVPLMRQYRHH

[3] = molecular target: Mitogen-activated protein kinase 14 (Homo sapiens) (UniProt Q16539); test: Inhibition of human MAPK14 at 1 uM using MBP as substrate in presence of [gamma33P]-ATP by HotSpot assay relative to control
Sequence of Mitogen-activated protein kinase 14 (Homo sapiens) (Q16539 whole entry): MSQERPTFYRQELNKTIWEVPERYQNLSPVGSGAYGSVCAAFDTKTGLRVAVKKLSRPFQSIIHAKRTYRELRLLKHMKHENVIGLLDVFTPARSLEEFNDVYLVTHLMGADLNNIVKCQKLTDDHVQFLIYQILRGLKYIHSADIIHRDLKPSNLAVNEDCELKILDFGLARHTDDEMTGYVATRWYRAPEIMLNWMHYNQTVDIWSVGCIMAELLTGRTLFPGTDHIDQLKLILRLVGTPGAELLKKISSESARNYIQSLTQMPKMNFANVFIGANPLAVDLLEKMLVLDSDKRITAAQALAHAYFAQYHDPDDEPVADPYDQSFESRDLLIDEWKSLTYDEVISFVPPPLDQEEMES

[4] = Average plasma concentration in human at 180 mg administered once a day; assay type: ADME; settings: in vivo
Mus musculus = test: In vivo inhibition of ALK phosphorylation in SCID Beige mouse xenografted with ALK positive human KARPAS-299 cells at 10 to 50 mg/kg, po administered once daily for 4 days and measured 24 hrs after last dose by ELISA; assay type: functional, organism-based; settings: dose 10-50 mg/kg, time 5.0 day
[5] = molecular target: Testis-specific serine/threonine-protein kinase 1 (Homo sapiens, UniProt Q9BXA7); test: Inhibition of human TSSK1 using KKKVSRSGLYRSPSMPENLNRPR as substrate in presence of [gamma33P]-ATP by HotSpot assay
[6] = molecular target: MAP kinase-interacting serine/threonine-protein kinase 2 (Homo sapiens) (UniProt Q9HBH9); test: Inhibition of human MNK2 at 1 uM using MBP as substrate in presence of [gamma33P]-ATP by HotSpot assay relative to control
Sequence of MAP kinase-interacting serine/threonine-protein kinase 2 (Homo sapiens) (Q9HBH9 whole entry, looked up): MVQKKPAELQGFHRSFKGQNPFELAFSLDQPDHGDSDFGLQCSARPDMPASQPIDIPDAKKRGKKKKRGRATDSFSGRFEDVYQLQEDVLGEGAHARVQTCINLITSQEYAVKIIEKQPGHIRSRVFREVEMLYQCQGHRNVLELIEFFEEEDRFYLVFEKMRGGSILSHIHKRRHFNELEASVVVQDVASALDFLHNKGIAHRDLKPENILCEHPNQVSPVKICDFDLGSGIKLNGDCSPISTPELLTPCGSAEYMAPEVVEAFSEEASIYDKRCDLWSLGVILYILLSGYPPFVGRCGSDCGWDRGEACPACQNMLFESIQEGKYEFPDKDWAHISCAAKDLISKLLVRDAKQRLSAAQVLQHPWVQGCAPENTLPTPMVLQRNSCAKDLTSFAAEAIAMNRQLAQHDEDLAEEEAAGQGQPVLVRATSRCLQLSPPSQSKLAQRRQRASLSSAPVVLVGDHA

[7] = molecular target: Cyclin-dependent kinase 5/CDK5 activator 1 (Homo sapiens) (UniProt Q00535+Q15078); test: Inhibition of human CDK5/p25 at 1 uM using RB protein as substrate in presence of [gamma33P]-ATP by HotSpot assay relative to control; assay type: protein-complex assay
Homo sapiens = species: Homo sapiens; test: Inhibition of human CDK2/CyclinA at 1 uM using RB protein as substrate in presence of [gamma33P]-ATP by HotSpot assay relative to control
[8] = molecular target: Mitogen-activated protein kinase kinase kinase 9 (Homo sapiens, UniProt P80192); test: Inhibition of human MAP3K9 using casein as substrate in presence of [gamma33P]-ATP by HotSpot assay
[9] = molecular target: Cyclin-dependent kinase 1/cyclin B1 (Homo sapiens) (UniProt P06493+P14635); test: Inhibition of human CDK1/CyclinB at 1 uM using RB protein as substrate in presence of [gamma33P]-ATP by HotSpot assay relative to control; assay type: protein-complex assay
Sequence of Cyclin-dependent kinase 1/cyclin B1 (Homo sapiens) (P06493 whole entry, looked up): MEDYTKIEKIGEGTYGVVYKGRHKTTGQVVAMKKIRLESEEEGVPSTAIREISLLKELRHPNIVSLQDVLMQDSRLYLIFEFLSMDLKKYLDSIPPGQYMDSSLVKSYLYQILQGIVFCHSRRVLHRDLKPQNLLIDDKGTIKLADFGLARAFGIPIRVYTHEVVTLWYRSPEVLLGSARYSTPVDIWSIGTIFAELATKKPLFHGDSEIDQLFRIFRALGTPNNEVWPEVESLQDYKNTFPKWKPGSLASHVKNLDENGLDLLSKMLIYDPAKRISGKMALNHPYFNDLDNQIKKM
Sequence of Cyclin-dependent kinase 1/cyclin B1 (Homo sapiens) (P14635 whole entry, looked up): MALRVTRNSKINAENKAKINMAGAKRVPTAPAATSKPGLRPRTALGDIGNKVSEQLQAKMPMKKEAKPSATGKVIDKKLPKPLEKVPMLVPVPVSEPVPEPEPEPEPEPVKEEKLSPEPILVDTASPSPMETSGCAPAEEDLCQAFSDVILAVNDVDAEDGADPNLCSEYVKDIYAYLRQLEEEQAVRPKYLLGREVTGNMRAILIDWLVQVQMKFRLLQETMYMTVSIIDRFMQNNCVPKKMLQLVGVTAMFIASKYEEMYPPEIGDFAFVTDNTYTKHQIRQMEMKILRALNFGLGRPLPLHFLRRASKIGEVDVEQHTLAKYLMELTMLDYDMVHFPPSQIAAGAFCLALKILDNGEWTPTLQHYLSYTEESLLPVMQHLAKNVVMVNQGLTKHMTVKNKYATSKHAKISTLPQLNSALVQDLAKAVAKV

[10] = molecular target: Glycogen synthase kinase-3 alpha (Homo sapiens) (UniProt P49840); test: Inhibition of human GSK3alpha at 1 uM using YRRAAVPPSPSLSRHSSPHQ(pS)EDEEE as substrate in presence of [gamma33P]-ATP by HotSpot assay relative to control
[11] = molecular target: Insulin-like growth factor 1 receptor (Homo sapiens, UniProt P08069); test: Inhibition of human IGF1R using KKKSPGEYVNIEFG as substrate in presence of [gamma33P]-ATP by HotSpot assay
[12] = system: Platelet-derived growth factor receptor alpha (Homo sapiens), P16234 [D842V]; test: Inhibition of human PDGFRalpha D842V mutant at 1 uM using poly (Glu, Tyr)4:1 as substrate in presence of [gamma33P]-ATP by HotSpot assay relative to control
[13] = molecular target: RAC-gamma serine/threonine-protein kinase (Homo sapiens) (UniProt Q9Y243); test: Inhibition of human AKT3 at 1 uM using KGSGSGRPRTSSFAEG as substrate in presence of [gamma33P]-ATP by HotSpot assay relative to control
[14] = molecular target: Ephrin type-A receptor 3 (Homo sapiens) (UniProt P29320); test: Inhibition of human EPHA3 at 1 uM using poly (Glu, Tyr)4:1 as substrate in presence of [gamma33P]-ATP by HotSpot assay relative to control
[15] = molecular target: Tyrosine-protein kinase ABL1 (Homo sapiens, UniProt P00519, T315I); test: Inhibition of human ABL1 T315I mutant using EAIYAAPFAKKK as substrate in presence of [gamma33P]-ATP by HotSpot assay
[16] = molecular target: Serine/threonine-protein kinase TAO1 (Homo sapiens, UniProt Q7L7X3); test: Inhibition of human TAOK1 using MBP as substrate in presence of [gamma33P]-ATP by HotSpot assay
[17] = molecular target: Tyrosine-protein kinase FRK (Homo sapiens, UniProt P42685); test: Inhibition of human FRK using RLGRDKYKTLRQIRQ as substrate in presence of [gamma33P]-ATP by HotSpot assay
[18] = molecular target: Macrophage colony-stimulating factor 1 receptor (Homo sapiens, UniProt P07333); test: Inhibition of human FMS using poly (Glu, Tyr)4:1 as substrate in presence of [gamma33P]-ATP by HotSpot assay
Sequence of Macrophage colony-stimulating factor 1 receptor (P07333 whole entry): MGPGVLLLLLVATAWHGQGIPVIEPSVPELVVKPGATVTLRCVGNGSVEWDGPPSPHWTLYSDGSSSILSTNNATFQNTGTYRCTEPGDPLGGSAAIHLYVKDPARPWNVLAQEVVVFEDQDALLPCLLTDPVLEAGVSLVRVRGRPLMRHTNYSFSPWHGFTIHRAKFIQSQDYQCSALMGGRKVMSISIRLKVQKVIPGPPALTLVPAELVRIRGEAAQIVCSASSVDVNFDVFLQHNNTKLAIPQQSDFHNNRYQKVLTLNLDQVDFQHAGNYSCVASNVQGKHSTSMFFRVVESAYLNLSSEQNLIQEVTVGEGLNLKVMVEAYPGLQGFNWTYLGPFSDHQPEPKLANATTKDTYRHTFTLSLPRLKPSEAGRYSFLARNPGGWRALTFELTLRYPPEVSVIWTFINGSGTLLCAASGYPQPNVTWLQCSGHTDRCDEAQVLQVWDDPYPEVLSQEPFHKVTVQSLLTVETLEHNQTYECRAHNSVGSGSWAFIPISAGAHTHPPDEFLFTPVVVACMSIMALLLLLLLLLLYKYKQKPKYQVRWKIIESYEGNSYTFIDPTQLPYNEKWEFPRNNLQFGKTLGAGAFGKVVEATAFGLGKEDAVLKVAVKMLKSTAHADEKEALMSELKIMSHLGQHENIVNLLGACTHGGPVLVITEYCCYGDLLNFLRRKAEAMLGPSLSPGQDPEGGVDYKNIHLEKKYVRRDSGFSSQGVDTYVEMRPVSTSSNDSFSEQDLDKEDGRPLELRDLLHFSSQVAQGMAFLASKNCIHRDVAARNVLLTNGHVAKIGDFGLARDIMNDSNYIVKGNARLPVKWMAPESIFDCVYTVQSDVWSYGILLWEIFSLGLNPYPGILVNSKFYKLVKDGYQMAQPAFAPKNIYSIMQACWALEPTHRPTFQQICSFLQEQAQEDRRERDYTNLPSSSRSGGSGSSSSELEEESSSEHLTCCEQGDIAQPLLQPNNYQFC

[19] = molecular target: SRSF protein kinase 3 (Homo sapiens) (UniProt Q9UPE1); test: Inhibition of human SRPK3 at 1 uM using GRSRSRSRSR as substrate in presence of [gamma33P]-ATP by HotSpot assay relative to control
Sequence of SRSF protein kinase 3 (Homo sapiens) (Q9UPE1 whole entry): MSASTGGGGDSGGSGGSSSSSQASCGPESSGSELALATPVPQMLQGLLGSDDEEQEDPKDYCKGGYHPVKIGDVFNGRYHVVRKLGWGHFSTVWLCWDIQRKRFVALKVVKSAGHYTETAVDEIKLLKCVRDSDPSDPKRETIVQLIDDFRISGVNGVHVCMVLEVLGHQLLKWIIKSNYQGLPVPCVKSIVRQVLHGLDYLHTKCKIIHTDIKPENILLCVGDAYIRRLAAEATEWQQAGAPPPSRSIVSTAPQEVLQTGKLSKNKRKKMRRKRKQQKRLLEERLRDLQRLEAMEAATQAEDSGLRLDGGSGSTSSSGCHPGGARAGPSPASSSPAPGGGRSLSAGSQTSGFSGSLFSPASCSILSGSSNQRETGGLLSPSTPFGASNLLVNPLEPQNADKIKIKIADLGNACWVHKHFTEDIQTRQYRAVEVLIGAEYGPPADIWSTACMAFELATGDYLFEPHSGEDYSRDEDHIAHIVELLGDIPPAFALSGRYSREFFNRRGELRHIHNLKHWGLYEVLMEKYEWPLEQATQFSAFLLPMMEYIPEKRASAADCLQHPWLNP

[20] = molecular target: Hepatocyte growth factor receptor (Homo sapiens, UniProt P08581); test: Inhibition of human MET using poly (Glu, Tyr)4:1 as substrate in presence of [gamma33P]-ATP by HotSpot assay
[21] = molecular target: Tyrosine-protein kinase ABL2 (Homo sapiens) (UniProt P42684); test: Inhibition of human ABL2 at 1 uM using EAIYAAPFAKKK as substrate in presence of [gamma33P]-ATP by HotSpot assay relative to control
Sequence of Tyrosine-protein kinase ABL2 (Homo sapiens) (P42684 whole entry, canonical isoform): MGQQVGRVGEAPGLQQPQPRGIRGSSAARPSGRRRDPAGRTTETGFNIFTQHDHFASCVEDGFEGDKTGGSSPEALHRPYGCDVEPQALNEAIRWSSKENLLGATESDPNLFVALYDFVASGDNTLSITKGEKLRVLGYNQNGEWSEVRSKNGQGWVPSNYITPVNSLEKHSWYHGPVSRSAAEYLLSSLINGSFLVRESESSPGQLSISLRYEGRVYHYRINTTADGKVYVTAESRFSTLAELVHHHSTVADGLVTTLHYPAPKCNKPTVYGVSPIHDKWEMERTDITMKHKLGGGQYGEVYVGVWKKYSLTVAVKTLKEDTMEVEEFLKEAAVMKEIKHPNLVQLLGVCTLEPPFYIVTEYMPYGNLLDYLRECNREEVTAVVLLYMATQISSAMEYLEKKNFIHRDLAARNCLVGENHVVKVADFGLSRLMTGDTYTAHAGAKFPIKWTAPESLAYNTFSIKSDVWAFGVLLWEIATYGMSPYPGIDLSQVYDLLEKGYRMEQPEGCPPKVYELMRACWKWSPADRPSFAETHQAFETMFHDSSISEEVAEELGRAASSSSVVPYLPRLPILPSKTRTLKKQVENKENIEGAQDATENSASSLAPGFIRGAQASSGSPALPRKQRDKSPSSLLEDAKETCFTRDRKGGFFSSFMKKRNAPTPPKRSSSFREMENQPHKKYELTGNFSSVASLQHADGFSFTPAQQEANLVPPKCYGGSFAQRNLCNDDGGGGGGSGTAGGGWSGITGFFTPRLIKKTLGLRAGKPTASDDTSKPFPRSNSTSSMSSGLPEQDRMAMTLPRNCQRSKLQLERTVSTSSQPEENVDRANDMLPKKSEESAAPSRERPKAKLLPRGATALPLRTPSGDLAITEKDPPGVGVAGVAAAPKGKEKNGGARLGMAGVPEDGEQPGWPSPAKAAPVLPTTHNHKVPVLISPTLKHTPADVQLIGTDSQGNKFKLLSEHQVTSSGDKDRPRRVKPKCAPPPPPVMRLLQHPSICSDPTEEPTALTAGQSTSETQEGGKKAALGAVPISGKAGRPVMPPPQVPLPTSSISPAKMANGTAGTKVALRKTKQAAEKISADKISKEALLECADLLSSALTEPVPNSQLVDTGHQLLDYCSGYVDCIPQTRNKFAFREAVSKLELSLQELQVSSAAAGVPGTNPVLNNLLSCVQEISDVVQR

[22] = molecular target: Casein kinase I isoform gamma-1 (Homo sapiens) (UniProt Q9HCP0); test: Inhibition of human CSNK1G1 at 1 uM using KRRRAL[pS]VASLPGL as substrate in presence of [gamma33P]-ATP by HotSpot assay relative to control
[23] = molecular target: RAF proto-oncogene serine/threonine-protein kinase (Homo sapiens) (UniProt P04049); test: Inhibition of human RAF1 at 1 uM using MEK1 as substrate in presence of [gamma33P]-ATP by HotSpot assay relative to control
[24] = molecular target: Death-associated protein kinase 1 (Homo sapiens) (UniProt P53355); test: Inhibition of human DAPK1 at 1 uM using KKLNRTLSFAEPG as substrate in presence of [gamma33P]-ATP by HotSpot assay relative to control
[25] = molecular target: Serine/threonine-protein kinase PAK 4 (Homo sapiens) (UniProt O96013); test: Inhibition of human PAK4 at 1 uM using RRRLSFAEPG as substrate in presence of [gamma33P]-ATP by HotSpot assay relative to control
[26] = molecular target: Tyrosine-protein kinase Yes (Homo sapiens, UniProt P07947); test: Inhibition of human YES1 using poly (Glu, Tyr)4:1 as substrate in presence of [gamma33P]-ATP by HotSpot assay

COc1cc(N2CCC(N3CCN(C)CC3)CC2)ccc1Nc1ncc(Cl)c(Nc2ccccc2P(C)(C)=O)n1 [BRIGATINIB]
Cave [1]: 1870 nM
inhibition [2]: < 90%
inhibition [3]: < 90%
Cave [4]: 1447 nM
Activity (Mus musculus): Active
IC50 [5]: 4.4 nM
inhibition [6]: < 90%
inhibition [7]: < 90%
inhibition (Homo sapiens): < 90%
IC50 [8]: 218 nM
inhibition [9]: < 90%
inhibition [10]: < 90%
IC50 [11]: 73 nM
inhibition [12]: < 90%
inhibition [13]: < 90%
inhibition [14]: < 90%
IC50 [15]: 242 nM
IC50 [16]: 493 nM
IC50 [17]: 52 nM
IC50 [18]: 358 nM
inhibition [19]: < 90%
IC50 [20]: > 1000 nM
inhibition [21]: < 90%
inhibition [22]: < 90%
inhibition [23]: < 90%
inhibition [24]: < 90%
inhibition [25]: < 90%
IC50 [26]: 19 nM
